Test results reported in patent publication US10059968B2, “Method for increasing lipid content in microorganisms and modified microorganisms therefrom” (Reliance […], priority 2014, dated 2018).

System: Chlamydomonas reinhardtii CW-15 cells
Assay: Nile Red Assay of lipid content in cells grown with cycloheximide
Assay type: cell-based
Procedure: FIG. 4A illustrates the graphical representation of fluorescence observed for Chlamydomonas reinhardtii CW-15 cells (Day 4) in Tris Acetate Phosphate medium grown with and without cycloheximide using Nile Red Assay;
Chemical inhibition of protein synthesis is carried out using cycloheximide. Chlamydomonas reinhardtii CW-15 (Chlamydomonas Resource Center, USA), is grown in the presence of varying amounts of cycloheximide (50 μM to 500 μM) to find out the effect of inhibition of protein synthesis on lipid content. […] FIGS. 4B and 4C depict the Nile Red stained cells of Chlamydomonas reinhardtii CW-15 cells grown without the protein inhibitor and in the presence of the protein inhibitor, respectively.

C[C@@H]1C[C@@H]([C@H](O)CC2CC(=O)NC(=O)C2)C(=O)[C@@H](C)C1 [cycloheximide]
lipid content (Nile Red fluorescence) (Chlamydomonas reinhardtii CW-15 grown with cycloheximide 50 μM to 500 μM vs without, Day 4, Tris Acetate Phosphate medium): increase in lipid content
lipid content (Nile Red fluorescence) (cells grown in the presence of 50 μM of cycloheximide): Highest lipid content
lipid content (Nile Red fluorescence) (higher amounts of cycloheximide (more than 200 μM)): decrease in the lipid content
